Legend:
solubility in water = format: physicochemical; details: 6BIO by itself
Text: The drug being attached to the unimers was a GSK3β inhibitor, 6BIO. […] By including 6BIO in the unimer design, the unimer solubilized the drug while the drug stabilized the micelle. The oxime of 6BIO was first conjugated to the carboxylic group of a 4-pentynoic acid derivative and then clicked to the azide-containing unimer by the alkyne on the 4-pentynoic acid derivative. Upon completion of the click reaction, the micelle was purified, dried, and formed micelles upon reconstitution in PBS.

[1] = 24 h organ biodistribution of radio-iodinated micelles and 6BIO in mice with femoral fracture; format: in vivo, CD4 Swiss mice
Procedure: Radio-iodination of micelles and 6BIO. The stannylated unimers and stannylated 6BIO (0.3-0.5 μmol) were dissolved in 100 μL DMF. The solutions were transferred to Wheaton V-vials containing a solution of [^125I]NaI (5.0 mCi) in 100 μL DMF phosphate-buffered saline (PBS) (pH 7.4). Chloramine-T was added, and the reaction mixture stirred for 15 min at ambient temperature. Purification of the iodinated micelles was performed using a LH20 column eluted with MeOH. Iodinated 6BIO was dissolved in EtOAc and was washed twice with water. The solvent of all three reactions was evaporated using a stream of nitrogen, and the residue was dissolved with PBS (pH 7.4) to obtain solutions with an activity concentration of 370 kBq/100 μL. The overall radiochemical yield was ca. 10%.
Murine fracture induction. […] The skin incision was made medial parapetellar.
Injection and dissection techniques/counting for 24 h biodistribution. From the iodinated products described previously 1 uCi/mL solutions were made in sterile PBS. […] Two weeks following fracture induction, each mouse received a 0.1 μCi (0.1 mL) dose of the radio-iodinated linear micelles, branched micelle, or free drug. Animals were then placed back in their cages for 24 h. At 24 h they were sacrificed using CO2 excess. Blood was drawn from a cardiopuncture and all other organs measured were removed (lungs, liver, spleen, kidneys, fractured femur, healthy femur). The activity was counted using Packard Cobra Auto-Gamma and was normalized by dividing the count rate by the weights of each organ.
Biodistribution: Organ biodistribution at 24 h. […] Although a cleavable linker is necessary for therapy studies, it may pose a problem with biodistribution studies. At 24 h of an in vivo study, 30% of the drug may be released. In a biodistribution study, premature release would not give accurate information on how well the targeting ligand is able to remain in the fracture site. A non-degradable oxime ether linker replaced the oxime-ester linker in the micelles for biodistribution. […]

[2] = system: stabilized femoral fracture; test: fracture healing efficacy, μCT analysis of fracture callus; format: in vivo, male CD4 Swiss Webster mice; details: 6.9 nmol/kg/dose i.v. every 3 days, 3 weeks after fracture, mean±SEM
Procedure: Mouse handling. All animal experiments were performed in accordance to Purdue University's IACUC approved protocols. Forty mice (10 per group) 31-35 g male CD4 Swiss Webster mice were purchased from Harlan laboratories. Mice were able to move freely throughout the experiment. At 3 weeks following fracture induction, mice were euthanized using a CO2 overdose. […] Mouse bone fracture. […] The skin incision was made over the knee. The patella was then dislocated and a small hole was made under the patella with a 25 guage needle. The needle was used to ream the intramedullary canal. A 22 guage locking nail was produced by flattening both ends was then inserted. The incision site was sutured and the femur was then fractured using a three-point bending device. […] Mouse dosing. Mice were dosed intravenously by tail vein injection every 3 days starting on the day of fracture induction. […] Mice receiving drug dosages were administered drugs at the follow dose 6.9 nmol/kg/dose in approximately 0.1 mL of PBS. PBS control mice received 0.1 mL of PBS. μCT analysis. […] The bones were scanned while immersed in PBS to prevent dehydration. Scanco μCT software was used to analyze the images for bone density, total volume (TV), relative bone volume (BV/TV), trabecular thickness (Tb.Th), and trabecular spacing (Tb.Sp). Volumes of interest included the fracture callus, and both cortical and trabecular bone between the points on the cortical bone where the bone was fractured. Statistical analysis. Statistical analyses were calculated using Prism GraphPad software. Data is presented in results as mean±standard error of the mean (SEM).

[3] = mouse, in vivo
Procedure: CD4 Swiss mice (30-35 g) acquired from Harlan laboratories were used for these experiments.
The study was performed on 3 groups of mice with 5 mice per group. Two weeks following fracture induction each mouse received 0.1 mCi (0.1 mL) of dose. Animals were then returned to their cages until euthanasia by CO2 overdose at the desired time point (1 h, 4 h, 24 h). Animals were imaged using MiLabs U-SPECT-II/CT. 3D reconstructions were performed using Image J software.
SPECT/CT biodistribution.

[4] = 24 h after injection, two weeks after fracture, 125I-labelled, non-degradable oxime ether linker

O=C1Nc2ccccc2C1=C1Nc2cc(Br)ccc2C1=NO [6BIO, 6′-bromoindirubin-3′-oxime]
solubility in water (solubility in water): not soluble in water | accumulation in the lungs, liver, and spleen ([1]; 24 h): high accumulation | accumulation in fractured femurs [1, 4]: 0.4±0.05% of injected dose/gram | accumulation in healthy femurs [1, 4]: 0.5±0.10% of injected dose/gram | Tb. Sp (trabecular spacing) [2]: 0.191 ± 0.009 mm | bone density of fracture callus [2]: 337.8±14.2 mg HAp/cm^3 | BV/TV (relative bone volume) ([2]; listed as Free 6BIO): 0.338 ± 0.015 | TV (callus total volume) ([2]; listed as Free 6BIO): 48.2 ± 5.8 mm^3 | Tb. Th (trabecular thickness) ([2]; listed as Free 6BIO): 0.134 ± 0.007 mm | BV/TV (relative bone volume) ([2]; listed as free 6BIO): 0.338±0.015 | TV (callus total volume) ([2]; listed as free 6BIO): 48.2±5.8 mm^3 | Tb. Th (trabecular thickness) ([2]; listed as free 6BIO): 0.134±0.007 mm | SPECT/CT distribution at 1 h [3]: primarily found in the stool | SPECT/CT distribution at 4 h [3]: primarily contained in the bowel | SPECT/CT distribution at 24 h [3]: appears to be cleared
